Data reported in publication PMC5131364, “Pharmacologic modulation of RORγt translates to efficacy in preclinical and translational models of psoriasis and inflammatory arthritis” (Scientific Reports, 2016).
Like-named read-outs stand apart in the source and are kept apart here.

Experiments:
mouse splenic γδ T cells = test: Mouse γδ+ T cell in vitro activation; format: cell-based; details: for IC50: Mus musculus, T-cell, IL-1β/IL-23 plus anti-IFNγ, 65 hours, ELISA
Text: The following antibodies (anti-mouse or anti-human) were purchased from BD Biosciences (San Diego, CA) or eBioscience (San Diego, CA): anti-CD3-FITC (mouse 17A2 and human SK7), anti-CD4-allophycocyanin (APC), anti-CD4-PerCp, anti-CD4-FITC, anti-CD4-PE (mouse GK1.5 and human SK3), anti-CD44-PerCp (mouse IM7), anti-γδ TCR-FITC, anti-γδ TCR-PE (mouse GL3 and human B1), anti-CD62L-FITC (mouse MEL-14 and human SK11), anti-CD45RO-APC (human UCHL1), anti-CCR6-PE (human 11A9), anti-CD45-PerCp (mouse 30-F11). Human or mouse anti-IFNγ (mouse XMG1.2 and human 4S.B3), anti-TNFα (mouse MP6-XT22 and human MAB11), anti-IL-17A (mouse eBio17B7 and human eBio64DEC17), anti-IL-22 (mouse 1H8PWSR and human 22URTI), and anti-Foxp3 (mouse FJK-16s and human 36A/E7), all PE or APC conjugated, were purchased from eBioscience (San Diego, CA). Human and mouse APC conjugated CD1d tetramers pre-loaded with alpha-GalCer and negative controls were obtained from ProImmune. For intracellular staining cells were stimulated for 4 hours at 37 °C with PMA and ionomycin (0.5 μg/ml each) in the presence of brefeldin A and monensin or with leukocyte activation cocktail (BD Bioscience, San Diego, CA). Cells were stained with fluorescence-labeled antibodies for surface marker, then fixed/permeabilized (eBioscience) and stained with antibodies for intracellular cytokines. For Foxp3 staining cells were fixed/permeabilized using transcription factor buffer set (eBioscience). The data were acquired on a FACS Calibur (BD Bioscience) and analyzed using FlowJo software (Tree Star, San Carlos, CA).
Mouse γδ^+ T cells were isolated from splenocytes of C57BL/6N mice using TCR γδ^+ T Cell Isolation Kit (Miltenyl Biotec, Auburn, CA), following the manufacturer’s instructions. Cells were resuspended in culture medium and seeded in 96-well plates at 5 × 10^4 per well. […] Cells were incubated at 37 °C and 5% CO2 for 65 hours before sample collection. Supernatant samples were collected for measurement of IL-17A, IL-17F and IL-22 using R&D ELISA kits, according to manufacturer’s instructions. Cytokine-producing cells were analyzed through intracellular staining and flow cytometry analysis.

[1] = test system: CLA+ memory T cells / autologous epidermal cells from guttate psoriasis patients; test: Co-culture of human psoriatic CLA+ memory T cells with epidermal cells, streptococcal extract; format: cell-based
Text: The study protocol was reviewed and subsequently approved by the Medical Ethics Committee of the Hospitals where the biopsies and blood were procured. All psoriasis donors in this study were required to be without disease-specific systemic therapy for at least 4 weeks or topical treatment for at least 2 weeks before the clinical samples were obtained. Circulating CLA^+/CLA^− CD45RO^+ CD3^+ cells and lesional epidermal cells were obtained from the same guttate psoriasis patient following the procedure described previously. In brief, memory T cell populations were isolated and enriched from peripheral blood lymphocytes by immunomagnetic separations. Epidermal cell suspensions were obtained from lesional biopsies by a dispase/trypsin treatment. The culture system was performed by seeding 50,000 circulating CLA^+ or CLA^− memory T cells with 30,000 autologous epidermal cells in a 96-flat bottom microwell plate (Nunc, Roskilde, Denmark) with culture medium (RPMI with 10% fetal calf serum). […] Cytokines in supernatants were quantified by multiplex fluorescent bead-based immunoassay, Diaclone DIAplex kit (Gen-Probe, Besançon, France), and data were collected with a F500 Flow Cytometer (Beckman Coulter, Fullerton, CA).

[2] = test system: collagen-induced arthritis in DBA/1Lacj mice; test: Mouse collagen-induced arthritis model; format: in vivo; details: 60 mg/kg BID oral
Method: Mice (female DBA/1Lacj mice, Jackson Laboratories; 8–10 weeks) were housed with 12 hours light-dark cycle with food and water provided ad libitum. Following acclimation, mice were immunized with an emulsion containing equal amounts of Chick Type II Collagen (Chondrex, Redmond, WA) and Complete-Freund’s adjuvant (CFA, Chondrex), 100 μg each per mouse, on day 0 at the base of the tail and administered a second immunization boost on day 21. On day 21, animals were examined for clinical arthritis scores and randomized into treatment groups. […] The clinical arthritis scores were evaluated from days 21 to 34. Animals were euthanized under CO2 on day 35. Both hind-paws from each animal were collected and fixed in 10% neutral buffered formalin for histopathology. Both front paws were digested after removing the skin in 0.125% (v/v) Dispase II (Roche, Indianapolis, IN), 0.2% collagenase II (Roche, Indianapolis, IN), and 0.2% collagenase IV (Sigma-Aldrich, St. Louis, MO) in HBSS for 75 min at 37 °C and passed through a cell strainer. Cells were then stimulated and analyzed by flow cytometry for cytokine-producing cells.
Tissues were fixed in 10% formalin, sectioned, and stained with H&E for histology at Seventh Wave Laboratories, LLC, (Chesterfield, MO).

[3] = 1 μM, SE-stimulated CLA+/epidermal cell co-culture, not statistically significant

COc1nc2ccc([C@@](O)(c3ccc(C)nc3C)c3cnnn3C)cc2c(Cl)c1Cc1ccc(C(F)(F)F)cc1 [JNJ-54271074] was tested, and the “decrease of the percentage of IL-17A- and IL-17A/IL-22-producing cells” value (mouse splenic γδ T cells; 0.1 μM) was “about 50%”, the IC50 (mouse splenic γδ T cells; read-out: IC50, IL-17A production) was 77 nM and the IC50 (mouse splenic γδ T cells; read-out: IC50, IL-17F production) was 54 nM. The IC50 (mouse splenic γδ T cells; read-out: IC50, IL-22 production) was 83 nM, the “TNFα and IL-8 production” value ([1]; 1 μM, SE-stimulated CLA+/epidermal cell co-culture) was “no effect” and the “increase of IFNγ production” value [1, 3] was 64%. For the same molecule, the “reduction of IL-6” value [1, 3] was 32%, the “reduction of IL-17F production” value [1, 3] was 40% and the “decrease of IL-17A production” value ([1]; 1 μM, SE-stimulated CLA+/epidermal cell co-culture, vs DMSO, significant) was 78%. The “IL-17A production in human cell co-culture model” value ([1]; discussion, in words) was “significant inhibition”, the “reduction of AUC for disease score” value [2] was 79% and the “decrease of IL-17A-producing CD3+ cell population in paws” value ([2]; day 35) was ~ 70%. The “inflammation, cartilage damage and bone destruction compared with vehicle” value ([2]; hind paws histology) was “significantly reduced” and the “reduction of total histopathology score” value ([2]; hind paws, day 35) was 80%.
